Test results reported in patent US9199927B2, “Guanidinobenzoic acid compound” (Astellas Pharma Inc., priority 2011, dated 2015).
Structures can show the parent of a compound that is named as a salt. Where two headings read alike, the source gives them in different places.

Key:
[1] = biological target: human recombinant trypsin (r-h trypsin) (Homo sapiens (Human), UniProt P07477); assay: Inhibitory activity of trypsin enzyme (human recombinant trypsin, BZiPAR fluorescent substrate); format: biochemical; conditions: human recombinant trypsin 0.088 μg/mL, 30 minutes at room temperature
Procedure: (§1) 1. Inhibitory Activity of Trypsin Enzyme in Humans and Mice
(§2) In the experiment, human recombinant trypsin (r-h trypsin; manufactured by WAKO, cat. #206-17171) and mouse trypsin (m-trypsin; purified from the mouse small intestine contents by the present Company) were used.
(§3) The outline of the measurement method is shown below.
(§4) The compound was dissolved in dimethyl sulfoxide (DMSO), and diluted to an arbitrary concentration (A). A was 100-fold diluted with a buffer (0.1 M Tris (pH 8.0), 0.15 M NaCl, 10 mM CaCl2, 0.05% Brij38) (B). The r-h trypsin was diluted with a buffer to 0.088 μg/mL, and the m-trypsin was diluted with a buffer to 1/50 (C). […] The substrate solution of a substrate for the enzyme reaction, BZiPAR, (Rhodamine Reference Substrate) was diluted with a buffer to 5 μmol/L (D). B; 5 μL, C; 5 μL, and D; 10 μL were added to a 384-plate, and incubated at room temperature for 30 minutes. The fluorescent signals were detected with Ex/Em=497/520 using Tecan Safire Fluorometer. […] Based on the obtained inhibitory rates, IC50 values (nM) were calculated from the non-linear regression. The test was carried out in the same manner, using camostat as a control compound.
(§5) Ex in the table represents the Example No. as denoted below.

[2] = biological target: mouse trypsin (m-trypsin); assay: Inhibitory activity of trypsin enzyme (mouse trypsin purified from small intestine contents, BZiPAR fluorescent substrate); format: biochemical; conditions: mouse trypsin diluted 1/50, BZiPAR substrate, 30 minutes at room temperature
From the text: as §1, §2
The method to extract the trypsin from the mouse small intestine is shown below.
The small intestine contents and the gastrointestinal tract of 10 mice were suspended in PBS using Polytron and subjected to centrifugation at 15,000×g several times. The supernatant was mixed at 4° C. for 16 hours with a Benzamidine Sepharose 4 Fast Flow Resin (GE Healthcare: #17-5123-10). After washing the resin with PBS, m-trypsin was eluted with a glycine elution buffer (pH 3.0).
as §3, §4, §5

[3] = tested on: ICR mice; assay: Increasing study of fecal protein concentration in mice; format: in vivo; conditions: Mus musculus, 5 mg/kg oral, feces collected 3 to 9 hours after, control = 1, read-out: protein increasing activity in feces, fold vs control
Procedure: 2. Increasing Study of Fecal Protein Concentration in Mice
For the experiment, 6-weeks old ICR mice (male) were used, and the experiment was carried out in five per group. After fasting the mice for 15 hours, the control group was forcibly orally administered with a 0.5% methyl cellulose (MC) solution, and the test drug group was forcibly orally administered (5 mg/kg) with a solution or suspension obtained by dissolving or suspending the compound in the 0.5% MC solution. The fasting was stopped immediately thereafter, free feeding (CE-2) started and then the feces were collected from after 3 hours to after 9 hours. All of the obtained feces were dissolved and suspended in 6 mL of distilled water, and centrifuged for 10 minutes at 3000 rpm. The protein concentration in the supernatant was measured by a Bradford method, and the amount of the protein in 1 g of feces was calculated by dividing the protein concentration in the feces by the total weight of feces. Further, the efficacy was investigated from the ratio to the control. For the compounds that were evaluated multiple times, the average values were calculated.
For some representative compounds, the protein increasing activities in feces are shown in Table 2, assuming a value for the control as 1. Ex in the table represents the Example No. as denoted below of the test compound.

Compound	IC50 [1] [pM]	IC50 [2] [pM]	response vs control in vivo at 5 mg/kg [3] [%]	response vs control in vivo at 5 mg/kg ([3]; po, 9 h) [%]
N=C(N)Nc1ccc(C(=O)Oc2ccc(CC(=O)N[C@@H](Cc3c[nH]cn3)C(=O)O)c(Cl)c2)cc1 [Example 2, N-({4-[(4-carbamimidamidobenzoyl)oxy]-2-chlorophenyl}acetyl)-L-histidine 2 hydrochloride]	920	490	–	–
N=C(N)Nc1ccc(C(=O)Oc2ccc(CCC(=O)Nc3ccc(CC(=O)O)cc3)c(Cl)c2)cc1 [Example 11]	760	450	–	–
N=C(N)Nc1ccc(C(=O)Oc2ccc(CC(=O)N[C@@H](Cc3ccc(C(=O)O)cc3)C(=O)O)c(Cl)c2)cc1 [Example 13]	910	840	185	–
N=C(N)Nc1ccc(C(=O)Oc2ccc(CC(=O)N[C@@H](Cc3ccc(Cl)cc3)C(=O)O)c(Cl)c2)cc1 [Example 15]	–	–	–	167
COc1ccc(C[C@H](NC(=O)Cc2ccc(OC(=O)c3ccc(NC(=N)N)cc3)cc2Cl)C(=O)O)cc1 [Example 16]	–	–	–	170
CN(C(=O)Cc1ccc(OC(=O)c2ccc(NC(=N)N)cc2)cc1Cl)[C@@H](Cc1ccccc1)C(=O)O [Example 33]	880	600	–	–
N=C(N)Nc1ccc(C(=O)Oc2ccc(CC(=O)N(CCc3ccccc3)CC(=O)O)c(Cl)c2)cc1 [Example 35]	440	280	–	–
N=C(N)Nc1ccc(C(=O)Oc2ccc(CCC(=O)N(CC(=O)O)Cc3cccc(C(=O)O)c3)c(Cl)c2)cc1 [Example 36]	430	380	192	–
N=C(N)Nc1ccc(C(=O)Oc2ccc(CC(=O)N(CC(=O)O)[C@@H](Cc3ccccc3)C(=O)O)c(Cl)c2)cc1 [Example 40]	500	450	–	–
N=C(N)Nc1ccc(C(=O)Oc2ccc(CCC(=O)N(CC(=O)O)c3cccc(CC(=O)O)c3)c(Cl)c2)cc1 [Example 41]	–	–	–	177
N=C(N)Nc1ccc(C(=O)Oc2ccc(CCC(=O)N(CCC(=O)O)Cc3cccc(C(=O)O)c3)c(Cl)c2)cc1 [Example 45]	570	660	165	–
N=C(N)Nc1ccc(C(=O)Oc2ccc(CCCC(=O)N(CC(=O)O)Cc3cccc(C(=O)O)c3)c(Cl)c2)cc1 [Example 51]	460	470	–	–
N=C(N)Nc1ccc(C(=O)Oc2ccc(CCC(=O)N(CC(=O)O)Cc3ccccc3C(=O)O)c(Cl)c2)cc1 [Example 53]	450	350	179	–
N=C(N)Nc1ccc(C(=O)Oc2ccc(CC(=O)N[C@@H](Cc3ccc(OCC(=O)O)cc3)C(=O)O)c(Cl)c2)cc1 [Example 56]	880	640	202	–
N=C(N)Nc1ccc(C(=O)Oc2ccc(CCC(=O)N(CCc3cccc(C(=O)O)c3)CC(=O)O)c(Cl)c2)cc1 [Example 58]	730	680	179	–
N=C(N)Nc1ccc(C(=O)Oc2ccc(CCC(=O)N(CC(=O)O)Cc3csc(C(=O)O)c3)c(Cl)c2)cc1 [Example 63]	–	–	–	184
N=C(N)Nc1ccc(C(=O)Oc2ccc3nc(C(=O)N(CC(=O)O)Cc4ccc(CC(=O)O)cc4)ccc3c2)cc1 [Example 113]	–	–	–	193
N=C(N)Nc1ccc(C(=O)Oc2ccc3cc(C(=O)N[C@@H](Cc4ccccc4)C(=O)O)[nH]c3c2)cc1 [Example 119]	–	–	–	139
N=C(N)Nc1ccc(C(=O)Oc2ccc(CCC(=O)NC(Cc3ccccc3)C(=O)O)c(Cl)c2)cc1 (stereo not shown) [Example 131]	510	400	–	–

Second part, led by results:

IC50 [1] [pM]	IC50 [2] [pM]	Compound	response vs control in vivo at 5 mg/kg [3] [%]	response vs control in vivo at 5 mg/kg ([3]; po, 9 h) [%]
170	190	N=C(N)Nc1ccc(C(=O)Oc2ccc(CC(=O)N[C@@H](Cc3ccc(O)cc3)C(=O)O)c(Cl)c2)cc1 [Example 1, N-({4-[(4-carbamimidamidobenzoyl)oxy]-2-chlorophenyl}acetyl)-L-tyrosine hydrochloride]	–	–
430	270	N=C(N)Nc1ccc(C(=O)Oc2ccc(CC(=O)N[C@@H](Cc3ccccc3)C(=O)O)c(-c3ccccc3)c2)cc1 [Example 17]	–	–
290	200	N=C(N)Nc1ccc(C(=O)Oc2ccc3nc(C(=O)Nc4ccc(CC(=O)O)cc4)ccc3c2)cc1 [Example 22]	–	–
210	170	N=C(N)Nc1ccc(C(=O)Oc2cc(F)c(CC(=O)N[C@@H](Cc3ccccc3)C(=O)O)c(F)c2)cc1 [Example 24]	–	–
290	250	N=C(N)Nc1ccc(C(=O)Oc2ccc(CC(=O)N[C@@H](Cc3ccccc3)C(=O)O)c(C(F)(F)F)c2)cc1 [Example 25]	–	–
290	180	N=C(N)Nc1ccc(C(=O)Oc2ccc(CC(=O)N[C@@H](Cc3ccccc3)C(=O)O)c(Cl)c2Cl)cc1 [Example 26]	–	–
260	190	N=C(N)Nc1ccc(C(=O)Oc2cc(Cl)c(CC(=O)N[C@@H](Cc3ccccc3)C(=O)O)c(Cl)c2)cc1 [Example 27]	–	–
310	210	N=C(N)Nc1ccc(C(=O)Oc2ccc(CC(=O)N[C@@H](Cc3ccccc3F)C(=O)O)c(Cl)c2)cc1 [Example 29]	–	–
260	190	N=C(N)Nc1ccc(C(=O)Oc2ccc(CC(=O)N[C@@H](Cc3cccc(F)c3)C(=O)O)c(Cl)c2)cc1 [Example 30]	–	–
310	340	N=C(N)Nc1ccc(C(=O)Oc2ccc(CC(=O)N[C@@H](Cc3ccc(C(F)(F)F)cc3)C(=O)O)c(Cl)c2)cc1 [Example 31]	–	–
360	240	N=C(N)Nc1ccc(C(=O)Oc2ccc(CC(=O)N[C@@H](Cc3ccccc3)C(=O)O)c(C3CC3)c2)cc1 [Example 34]	–	–
380	340	N=C(N)Nc1ccc(C(=O)Oc2ccc(CCCCC(=O)N[C@@H](Cc3ccccc3)C(=O)O)c(Cl)c2)cc1 [Example 37]	–	–
300	390	N=C(N)Nc1ccc(C(=O)Oc2ccc(CCC(=O)NCc3ccccc3C(=O)O)c(Cl)c2)cc1 [Example 52]	182	–
420	380	N=C(N)Nc1ccc(C(=O)Oc2ccc(CC(=O)N(CCC(=O)O)[C@@H](Cc3ccccc3)C(=O)O)c(Cl)c2)cc1 [Example 54]	–	–
270	310	N=C(N)Nc1ccc(C(=O)Oc2ccc3nc(C(=O)N(CC(=O)O)Cc4cccc(C(=O)O)c4)ccc3c2)cc1 [Example 59]	217	–
230	140	CN(C(=O)N(CC(=O)O)Cc1cccc(C(=O)O)c1)c1ccc(OC(=O)c2ccc(NC(=N)N)cc2)cc1Cl [Example 61]	167	–
290	170	N=C(N)Nc1ccc(C(=O)Oc2ccc(CCC(=O)N(CC(=O)O)Cc3ccccc3)c(Cl)c2)cc1 [Example 62]	–	–
370	700	N=C(N)Nc1ccc(C(=O)Oc2ccc(CCC(=O)N(CC(=O)O)Cc3cc(C(=O)O)cc(C(=O)O)c3)c(Cl)c2)cc1 [Example 64]	198	–
400	450	N=C(N)Nc1ccc(C(=O)Oc2ccc(CCN(CC(=O)O)Cc3cccc(C(=O)O)c3)c(Cl)c2)cc1 [Example 65]	–	–
350	450	N=C(N)Nc1ccc(C(=O)Oc2ccc(CCN(CC(=O)O)C(=O)Cc3cccc(C(=O)O)c3)c(Cl)c2)cc1 [Example 66]	–	–
180	230	N=C(N)Nc1ccc(C(=O)Oc2ccc3nc(C(=O)N[C@@H](Cc4ccc(OCC(=O)O)cc4)C(=O)O)ccc3c2)cc1 [Example 71]	–	–
400	560	N=C(N)Nc1ccc(C(=O)Oc2ccc(CCC(=O)N(Cc3cccc(C(=O)O)c3)Cc3cccc(C(=O)O)c3)c(Cl)c2)cc1 [Example 93]	–	–
420	390	CN(C(=O)CN(CC(=O)O)Cc1cccc(C(=O)O)c1)c1ccc(OC(=O)c2ccc(NC(=N)N)cc2)cc1Cl [Example 94]	–	–
